In brackets after ≈: the same amount, converted by molar mass. Where two headings read alike, the source gives them in different places.
Tests used:
Format in all cases: cell-based
[1] = system: M. hominis (Mh); assay: MIC by micro-broth dilution, M. hominis; settings: 49 isolates, SP4 medium
Experimental: (§1) Organisms used in the analyses included Mycoplasma pneumoniae (MPN), M. hominis (Mh), M. fermentans (Mf), M. genitalium (Mg), M. penetrans (Mp) and Ureaplasma urealyticum (Uu). Minimum Inhibitory Concentrations (MICs) were determined using a micro-broth dilution method. Assays for Ureaplasma urealyticum were performed in 10B media and all other mycoplasma assays were carried out in SP4 medium.

[2] = system: Mycoplasma pneumoniae (MPN); assay: MIC by micro-broth dilution, Mycoplasma pneumoniae
Experimental: as §1

[3] = system: M. genitalium (Mg); assay: MIC by micro-broth dilution, M. genitalium; settings: Mycoplasmoides genitalium, 2 isolates, one line per isolate, SP4 medium, read-out: MICs for Mg
Experimental: as §1

[4] = system: M. fermentans (Mf); assay: MIC by micro-broth dilution, M. fermentans; settings: 19 isolates, SP4 medium
Experimental: as §1

[5] = system: Ureaplasma urealyticum (Uu); assay: MIC by micro-broth dilution, Ureaplasma urealyticum
Experimental: as §1

[6] = system: M. penetrans (Mp); assay: MIC by micro-broth dilution, M. penetrans; settings: 1 isolate, SP4 medium; for MIC: read-out: MICs for Mp
Experimental: as §1

[7] = Metamycoplasma hominis, read-out: MIC 90
[8] = MPN, 103 isolates, SP4 medium, read-out: MIC 90
[9] = Mycoplasmopsis fermentans, read-out: MIC 90
[10] = Uu, 99 isolates, 10B media, read-out: MIC 90

Compound | MIC90 [1, 7] | MIC90 [2, 8] | MIC [3] | MIC90 [4, 9] | MIC90 [5, 10] | MIC [6] | MIC90 [1] | MIC90 [4] | MICs for Mp [6] | MIC90 [2] | MIC90 [5]
CO/N=C1\CN(c2nc3c(cc2F)c(=O)c(C(=O)O)cn3C2CC2)CC1CN (racemic) [Gem, (R,S)-7-(3-aminomethyl-4-methoxyiminopyrrolidin-1-yl)-1-cyclopropyl-6-fluoro-4-oxo-1,4-dihydro-1,8-naphthyridine-3-carboxylic acid] | ≤ 0.008 µg/mL | 0.125 µg/mL (≈ 0.321 µM) | 0.063 µg/mL (≈ 0.162 µM) | ≤ 0.008 µg/mL | 0.25 µg/mL (≈ 0.642 µM) | ≤ 0.008 µg/mL | – | – | – | – | –
CC[C@H]1OC(=O)[C@H](C)[C@@H](O[C@H]2C[C@@](C)(OC)[C@@H](O)[C@H](C)O2)[C@H](C)[C@@H](O[C@@H]2O[C@H](C)C[C@H](N(C)C)[C@H]2O)[C@](C)(O)C[C@@H](C)CN(C)[C@H](C)[C@@H](O)[C@]1(C)O [Azith, azithromycin] | – | ≤ 0.008 µg/mL | ≤ 0.008 µg/mL | 2 µg/mL (≈ 2.67 µM) | 4 µg/mL (≈ 5.34 µM) | ≤ 0.008 µg/mL | – | – | – | – | –
CC[C@H]1OC(=O)[C@H](C)[C@@H](O[C@H]2C[C@@](C)(OC)[C@@H](O)[C@H](C)O2)[C@H](C)[C@@H](O[C@@H]2O[C@H](C)C[C@H](N(C)C)[C@H]2O)[C@](C)(OC)C[C@@H](C)C(=O)[C@H](C)[C@@H](O)[C@]1(C)O [Clar, clarithromycin] | – | ≤ 0.008 µg/mL | ≤ 0.008 µg/mL | 64 µg/mL (≈ 85.6 µM) | 0.063 µg/mL (≈ 0.0842 µM) | ≤ 0.008 µg/mL | – | – | – | – | –
CCC[C@@H]1C[C@@H](C(=O)N[C@@H]([C@H]2O[C@H](SC)[C@H](O)[C@@H](O)[C@H]2O)[C@H](C)Cl)N(C)C1 [Clin, clindamycin] | – | – | – | – | – | – | ≦0.008 ug/ml | 0.031 µg/mL (≈ 0.0729 µM) | ≦0.008 ug/ml | – | –
Cc1c(F)c(N2CCNC(C)C2)cc2c1c(=O)c(C(=O)O)cn2C1CC1 (stereo not shown) [Grep, grepafloxacin] | 0.031 µg/mL (≈ 0.0863 µM) | 0.125 µg/mL (≈ 0.348 µM) | 0.125 µg/mL (≈ 0.348 µM) | 0.016 µg/mL (≈ 0.0445 µM) | 1 µg/mL (≈ 2.78 µM) | 0.016 µg/mL (≈ 0.0445 µM) | – | – | – | – | –
C[C@H]1COc2c(N3CCN(C)CC3)c(F)cc3c(=O)c(C(=O)O)cn1c23 [Lev, levofloxacin] | 0.25 µg/mL (≈ 0.692 µM) | 0.5 µg/mL (≈ 1.38 µM) | 0.5 µg/mL (≈ 1.38 µM) | 0.031 µg/mL (≈ 0.0858 µM) | 1 µg/mL (≈ 2.77 µM) | 0.031 µg/mL (≈ 0.0858 µM) | – | – | – | – | –
CN(C)[C@@H]1C(O)=C(C(N)=O)C(=O)[C@@]2(O)C(O)=C3C(=O)c4c(O)cccc4[C@@](C)(O)[C@H]3C[C@@H]12 [Tet, tetracycline] | 32 µg/mL (≈ 72 µM) | – | 0.063 µg/mL (≈ 0.142 µM) | 0.063 µg/mL (≈ 0.142 µM) | – | 0.125 µg/mL (≈ 0.281 µM) | – | – | – | 0.25 µg/mL (≈ 0.563 µM) | 1 µg/mL (≈ 2.25 µM)
N[C@@H]1[C@H]2CN(c3nc4c(cc3F)c(=O)c(C(=O)O)cn4-c3ccc(F)cc3F)C[C@@H]12 [Trov, trovafloxacin] | – | – | – | – | – | – | 0.031 µg/mL (≈ 0.0745 µM) | 0.016 µg/mL (≈ 0.0384 µM) | ≦0.008 ug/ml | – | –
